Among the test systems are EKVX; HCC 2998; HCT-15; HOP-92; Hs-578T; M14; MDA-MB-435; MDA-N; NCI-H522; OVCAR-4; OVCAR-5; OVCAR-8; PC-3; SF-295; SW-620; TK-10; UACC-257; UO-31; CCRF-CEM; HL-60.
What all share (experiment): inhibition of tumour cell growth, NCI panel, 48 h

Here are results for eleven compounds from ChEMBL document CHEMBL1201862, “PubChem BioAssay data set” (2004).

Structures are written as SMILES.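 Five concentrations, 48 hours, 96-well plates. GI50 = concentration required for 50% inhibition of growth.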 Active and inactive are the calls of the source. No stated cut-off is given here; in the data, active = GI50 up to about 1.1 µM and inactive = higher.

As for `O=[As](O)(O)c1ccc2nc3cc([As](=O)(O)O)ccc3nc2c1`, the GI50 in the assay with EKVX is > 100 µM (inactive); with HCC 2998, > 100 µM (inactive); in the assay with HCT-15 it was above 100 µM; in the assay with HOP-92, > 100 µM (inactive); in the assay on Hs-578T it was > 100 µM (inactive); in the assay with M14 it was > 100 µM (inactive). The GI50 in the assay with MDA-MB-435, in the assay with MDA-N, with NCI-H522, in the assay with OVCAR-4, with OVCAR-5 and with OVCAR-8 was > 100 µM (inactive) in each case. Besides, the GI50 in the assay with PC-3, in the assay with SF-295, in the assay with SW-620, in the assay with TK-10, in the assay on UACC-257 and in the assay with UO-31 was > 100 µM (inactive) in each case.

On to `CCOC(=O)c1cc2cc([N+](=O)[O-])ccc2oc1=O`, for which the GI50 in the assay on CCRF-CEM is > 100 µM (inactive); in the assay with EKVX it was > 100 µM (inactive); with HCC 2998, 58.6 µM (inactive); in the assay on HCT-15, above 100 µM; in the assay on HL-60, 99.5 µM (inactive); with HOP-92, > 100 µM (inactive). Further, the GI50 with Hs-578T, in the assay with M14, in the assay on MDA-MB-435, in the assay on MDA-N, in the assay on NCI-H522 and with OVCAR-4 was > 100 µM (inactive) throughout. Also, the GI50 in the assay on OVCAR-5, in the assay with OVCAR-8, in the assay on PC-3, in the assay on SF-295, with SW-620 and in the assay with UACC-257 was > 100 µM (inactive) throughout. The GI50 with UO-31 was 35.6 µM (inactive).

Consider `COc1cccc([C@H]2CC(=O)c3cc4c(cc3N2)OCO4)c1`, for which the GI50 with CCRF-CEM was 0.49 µM (active); in the assay with HCC 2998 it was 0.434 µM (active); in the assay with HCT-15, 0.341 µM; in the assay with HOP-92 it was 19.1 µM (inactive); in the assay on Hs-578T, 0.216 µM (active); in the assay on M14 it was 0.237 µM (active). Further, the GI50 in the assay on MDA-MB-435 is 0.0743 µM (active); in the assay with MDA-N, 0.0789 µM (active); in the assay with NCI-H522 it was 0.238 µM (active); in the assay on OVCAR-4, 20.6 µM (inactive); with OVCAR-5, 0.441 µM (active); with OVCAR-8, 0.401 µM (active). The GI50 in the assay with PC-3 is 0.275 µM (active); with SF-295, 0.296 µM (active); with SW-620, 0.428 µM (active); in the assay on TK-10, 0.979 µM (active); in the assay on UACC-257, 0.91 µM (active); in the assay on UO-31, 0.485 µM (active).

In the case of `O=C1OC(c2ccccc2)N(C(=O)c2ccccc2)C1Cc1ccc(OCc2ccccc2)cc1` (stereo not drawn), the GI50 is > 100 µM (inactive) in the assay with CCRF-CEM; 9.57 µM (inactive) in the assay with EKVX; 21.8 µM (inactive) in the assay with HCC 2998; above 100 µM in the assay on HCT-15; 9.89 µM (inactive) in the assay with HL-60; 3.91 µM (inactive) in the assay on HOP-92. Moreover, the GI50 with Hs-578T is 35.6 µM (inactive); in the assay on M14, > 100 µM (inactive); in the assay with MDA-MB-435 it was > 100 µM (inactive); in the assay on MDA-N it was > 100 µM (inactive); in the assay on OVCAR-5, > 100 µM (inactive); with OVCAR-8, 94.8 µM (inactive). In addition, the GI50 was 34.8 µM (inactive) in the assay on PC-3, > 100 µM (inactive) with SW-620, 43.9 µM (inactive) in the assay on TK-10 and 21.1 µM (inactive) in the assay on UO-31.

For `N#Cc1nnc2c3c(-c4ccc(Cl)cc4)c(C#N)c(O)nc3nn2c1N`, the GI50 in the assay with CCRF-CEM was 3.63 µM (inactive); in the assay on EKVX, 12.9 µM (inactive); in the assay on HCC 2998, 3.14 µM (inactive); in the assay with HCT-15, 8.83 µM; in the assay with HOP-92, 5.2 µM (inactive); in the assay on Hs-578T it was 3.4 µM (inactive). The GI50 was 6.89 µM (inactive) in the assay on M14; 8.69 µM (inactive) in the assay on MDA-MB-435; 3.61 µM (inactive) in the assay with MDA-N; 1.62 µM (inactive) in the assay with NCI-H522; 14.9 µM (inactive) in the assay with OVCAR-4; 24.8 µM (inactive) in the assay with OVCAR-5. Besides, the GI50 in the assay with OVCAR-8 is 4.92 µM (inactive); with PC-3 it was 1.45 µM (inactive); in the assay with SF-295, 5.3 µM (inactive); with SW-620, 5.46 µM (inactive); with TK-10 it was 22.6 µM (inactive); with UACC-257, 15.4 µM (inactive). The GI50 in the assay on UO-31 is 6.25 µM (inactive).

Consider `Nc1ncnc2c1ncc(=O)n2C1CC(O)C(CO)O1` (stereo not drawn), for which the GI50 is > 100 µM (inactive) in the assay on CCRF-CEM; > 100 µM (inactive) in the assay with EKVX; > 100 µM (inactive) in the assay on HCC 2998; above 100 µM in the assay with HCT-15; > 100 µM (inactive) in the assay on HOP-92; > 100 µM (inactive) with Hs-578T. Also, the GI50 in the assay on M14, in the assay with MDA-MB-435, with MDA-N, in the assay on NCI-H522, with OVCAR-4 and in the assay on OVCAR-5 was > 100 µM (inactive) each time. For the same compound, the GI50 in the assay with OVCAR-8 is > 100 µM (inactive); in the assay with PC-3, > 100 µM (inactive); in the assay with SF-295 it was 65.6 µM (inactive); in the assay with SW-620, > 100 µM (inactive); in the assay on TK-10 it was > 100 µM (inactive); in the assay on UACC-257, > 100 µM (inactive). In addition, the GI50 in the assay on UO-31 is > 100 µM (inactive).

For the compound `ClC(Cl)(Cl)C1=N[C@H]2[C@H](Br)[C@@H]3O[C@@H](c4ccccc4)[C@H](c4ccccc4)O[C@@H]3[C@H]2O1`, the GI50 with CCRF-CEM is 17.7 µM (inactive); in the assay on EKVX, 26.2 µM (inactive); in the assay on HCC 2998, 15.2 µM (inactive); in the assay on HCT-15, 27.2 µM; with HOP-92 it was 16.5 µM (inactive); in the assay with Hs-578T, 23.8 µM (inactive). Besides, the GI50 in the assay with M14 was 23.8 µM (inactive); in the assay on MDA-MB-435, 20.7 µM (inactive); in the assay on MDA-N, 20.3 µM (inactive); in the assay on NCI-H522, 10.9 µM (inactive); in the assay with OVCAR-4, 18.7 µM (inactive); in the assay with OVCAR-5, 18.9 µM (inactive). The GI50 in the assay on OVCAR-8 was 17.6 µM (inactive); in the assay with PC-3, 16 µM (inactive); in the assay with SF-295 it was 17.1 µM (inactive); in the assay on SW-620 it was 19.6 µM (inactive); with TK-10 it was 20.4 µM (inactive); in the assay with UACC-257, 18.3 µM (inactive). Also, in the assay with UO-31, the GI50 is 20.7 µM (inactive).

Regarding `CCOC(=O)c1nc2cc(C(F)(F)F)ccc2nc1Nc1ccc(OC)c(OC)c1`, the GI50 with CCRF-CEM is > 100 µM (inactive); with EKVX it was > 100 µM (inactive); with HCC 2998 it was > 100 µM (inactive); in the assay on HCT-15 it was above 100 µM; in the assay on HL-60, > 100 µM (inactive); in the assay with HOP-92, > 100 µM (inactive). For the same compound, the GI50 with Hs-578T is 41.7 µM (inactive); with M14 it was > 100 µM (inactive); in the assay with MDA-MB-435, > 100 µM (inactive); with MDA-N, > 100 µM (inactive); with NCI-H522 it was > 100 µM (inactive); with OVCAR-5, > 100 µM (inactive). The GI50 with OVCAR-8, with PC-3, in the assay on SF-295, with SW-620, with TK-10 and with UACC-257 was > 100 µM (inactive) throughout. In addition, the GI50 with UO-31 was > 100 µM (inactive).

Regarding `O=c1cc(NNc2cccc(F)c2)[nH]c(=S)[nH]1`, the GI50 is > 100 µM (inactive) in the assay with EKVX; 63.4 µM (inactive) in the assay on HCC 2998; 54.1 µM in the assay with HCT-15; 71.9 µM (inactive) in the assay with HL-60; 19.2 µM (inactive) in the assay with HOP-92; > 100 µM (inactive) in the assay on Hs-578T. Also, the GI50 with M14, in the assay on MDA-MB-435, with MDA-N, in the assay with OVCAR-4, in the assay with OVCAR-5 and with OVCAR-8 was > 100 µM (inactive) each time. Further, the GI50 with PC-3, in the assay with SF-295, in the assay with SW-620, in the assay with TK-10, in the assay with UACC-257 and with UO-31 was > 100 µM (inactive) in each case.

For the compound `O/N=C\c1c2c(cc3c1CCC3)CCC2`, the GI50 in the assay with CCRF-CEM is > 100 µM (inactive); in the assay on EKVX, > 100 µM (inactive); with HCC 2998, > 100 µM (inactive); in the assay on HCT-15, above 100 µM; in the assay with HL-60, > 100 µM (inactive); with Hs-578T it was > 100 µM (inactive). In addition, the GI50 in the assay with M14, in the assay with MDA-MB-435, in the assay on MDA-N, in the assay with NCI-H522, in the assay on OVCAR-4 and in the assay on OVCAR-5 was > 100 µM (inactive) throughout. For the same compound, the GI50 in the assay on OVCAR-8, in the assay on PC-3, in the assay on SF-295, with SW-620, with TK-10 and in the assay on UACC-257 was > 100 µM (inactive) throughout. For the same compound, the GI50 in the assay on UO-31 is > 100 µM (inactive).

Consider `Cn1c(N=[N+]=[N-])cc(=O)n(C)c1=O`, for which the GI50 in the assay on CCRF-CEM was > 100 µM (inactive); with EKVX, > 100 µM (inactive); with HCC 2998, > 100 µM (inactive); in the assay with HCT-15, above 100 µM; in the assay on HOP-92, > 100 µM (inactive); in the assay on Hs-578T, > 100 µM (inactive). For the same compound, the GI50 in the assay with M14, with MDA-MB-435, in the assay with MDA-N, in the assay on NCI-H522, in the assay with OVCAR-4 and in the assay on OVCAR-5 was > 100 µM (inactive) throughout. The GI50 in the assay on OVCAR-8, with PC-3, in the assay on SF-295, in the assay on SW-620, in the assay on TK-10 and in the assay on UACC-257 was > 100 µM (inactive) in each case. For the same compound, the GI50 in the assay with UO-31 is > 100 µM (inactive).
